The values that follow come from patent US12391737B2, “Soluble NPY2 receptor agonists” (Boehringer Ingelheim International GmbH, priority 2020, dated 2025).

Data set [1] concerns the target T1, Human Neuropeptide Y2 Receptor (Homo sapiens, UniProt P49146).
T1 construct: purchased CHEMICON HTS066M
T1 sequence (P49146 1-381): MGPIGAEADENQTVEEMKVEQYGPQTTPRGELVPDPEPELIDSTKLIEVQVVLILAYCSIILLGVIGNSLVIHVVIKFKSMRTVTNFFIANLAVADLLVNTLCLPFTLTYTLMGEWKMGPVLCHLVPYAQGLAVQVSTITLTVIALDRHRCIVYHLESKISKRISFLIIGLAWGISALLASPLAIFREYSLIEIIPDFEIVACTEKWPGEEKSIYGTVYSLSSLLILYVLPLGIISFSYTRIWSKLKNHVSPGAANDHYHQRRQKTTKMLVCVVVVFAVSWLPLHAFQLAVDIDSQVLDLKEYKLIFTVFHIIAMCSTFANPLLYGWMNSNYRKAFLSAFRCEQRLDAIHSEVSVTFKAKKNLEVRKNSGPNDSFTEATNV
Nature of the data set: Radioligand binding competition assay (RLB). The method, boiled down:
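Filtration competition binding on membranes from cells expressing the receptor, 0.5 μg protein/well, in 50 mM HEPES, 5 mM MgCl2, 1 mM CaCl2, pH 7.4, with 0.2% ovalbumin. Incubation ran 2 h at room temperature, followed by GF/C filtration and scintillation counting. IC50 came from nonlinear sigmoidal fits.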

Data set [2] addresses T2, human NPY1 receptor (hY1R) (Homo sapiens, UniProt P25929).
T2 construct: expressed in transfected cells; host or cells: CHO-K1
T2 sequence (P25929 1-384): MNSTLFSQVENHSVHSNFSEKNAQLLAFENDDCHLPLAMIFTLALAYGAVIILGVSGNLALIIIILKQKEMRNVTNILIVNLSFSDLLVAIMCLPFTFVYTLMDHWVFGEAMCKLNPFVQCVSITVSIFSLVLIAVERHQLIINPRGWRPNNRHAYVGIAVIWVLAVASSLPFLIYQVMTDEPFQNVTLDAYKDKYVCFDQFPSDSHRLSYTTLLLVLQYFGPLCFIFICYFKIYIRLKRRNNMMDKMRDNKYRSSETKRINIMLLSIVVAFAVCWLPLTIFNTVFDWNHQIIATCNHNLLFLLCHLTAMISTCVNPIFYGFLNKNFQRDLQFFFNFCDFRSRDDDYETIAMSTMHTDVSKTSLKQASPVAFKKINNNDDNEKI
Nature of the data set: HTRF cAMP Gi assay, hY1R. In kind it is cell-based. Particulars: CHO-K1 cells.

Data set [3] concerns the target T3, human NPY4 receptor (hY4R) (Homo sapiens, UniProt P50391).
T3 construct: expressed in transfected cells; host or cells: CHO-K1
The experiment in a line: HTRF cAMP Gi assay, hY4R. Type of data set: cell-based. As to conditions: CHO-K1 cells.
Experimental: (§1) Briefly, the production of intracellular cAMP will generate a competition between unlabeled cAMP and exogenously added d2-cAMP for anti-cAMP antibodies conjugated to cryptate. CHO-K1 cells stably expressing the human NPY1, NPY2, NPY4 and NPY5 receptors were used with the cells brought to life from a frozen stock immediately before assay performance. 2000 cells per well were applied for all four NPY receptor subtype assays. A 384-well format was used applying a total volume of 20 μl using 5 μl cells, 2.5 μl peptide agonist, 2.5 μl forskolin and 5 μl of each of the fluorophores. […] Concentration-response evaluation of compounds was performed with 11 concentrations of agonist peptides (covering 3 decades). EC50 values were calculated by nonlinear regression using sigmoid concentration-response with variable slope.

The nature of another data set: Solubility determination. Particulars: for Sol6: pH 6; for Sol7: pH 7. The method, boiled down: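 Sample: TFA-salt peptide at 10 mg/ml target in 0.1 M Na diphosphate, pH 6.4 or 7.0, shaken 2 h RT, filtered, diluted to 1 mg/ml.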
Data set [4] has as its target T4, human NPY5 receptor (hY5R) (Homo sapiens, UniProt Q15761).
T4 sequence (Q15761 1-445): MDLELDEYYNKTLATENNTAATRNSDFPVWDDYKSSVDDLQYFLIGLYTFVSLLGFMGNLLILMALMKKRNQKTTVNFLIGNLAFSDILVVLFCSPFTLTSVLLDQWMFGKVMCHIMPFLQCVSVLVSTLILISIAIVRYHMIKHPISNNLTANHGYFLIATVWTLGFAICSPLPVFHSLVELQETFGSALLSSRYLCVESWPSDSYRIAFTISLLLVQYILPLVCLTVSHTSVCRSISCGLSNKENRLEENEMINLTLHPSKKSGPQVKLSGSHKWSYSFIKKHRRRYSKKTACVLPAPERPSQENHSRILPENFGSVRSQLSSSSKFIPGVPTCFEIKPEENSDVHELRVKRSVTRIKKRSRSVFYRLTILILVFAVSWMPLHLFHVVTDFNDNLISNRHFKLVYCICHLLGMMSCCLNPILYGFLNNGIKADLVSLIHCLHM
Nature of the data set: HTRF cAMP Gi assay, hY5R.
Experimental: as §1

Where [5] appears, read: Table 3, 125I-PYY(1-36) competition, read-out: Ki.

Each structure is given as a SMILES string. Read-outs that look alike come from different tables or passages of the source.

T3 sequence (P50391 whole entry): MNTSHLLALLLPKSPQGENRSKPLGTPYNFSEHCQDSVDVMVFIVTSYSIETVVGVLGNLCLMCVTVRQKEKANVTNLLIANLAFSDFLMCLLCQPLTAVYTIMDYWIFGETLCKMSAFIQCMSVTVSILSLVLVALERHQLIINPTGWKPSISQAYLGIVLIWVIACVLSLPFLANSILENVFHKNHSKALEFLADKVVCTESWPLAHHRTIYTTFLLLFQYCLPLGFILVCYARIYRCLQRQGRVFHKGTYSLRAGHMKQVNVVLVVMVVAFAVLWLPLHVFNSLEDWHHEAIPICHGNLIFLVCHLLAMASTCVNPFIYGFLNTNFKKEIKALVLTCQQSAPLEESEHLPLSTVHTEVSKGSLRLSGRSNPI

As to `CC(C)CC(=O)N[C@@H](C)C(=O)N1CCC[C@H]1C(=O)N[C@@H](CCC(=O)O)C(=O)N[C@@H](CCCCNC(=O)CCCCCNC(=O)CC[C@H](NC(=O)CCCCCCCCCCCCCCCCC(=O)O)C(=O)O)C(=O)N1CCC[C@H]1C(=O)N[C@@H](CCC(=O)O)C(=O)N[C@@H](C)C(=O)N[C@@H](CC(=O)O)C(=O)N[C@@H](C)C(=O)N[C@H](C(=O)N1CCC[C@H]1C(=O)N[C@@H](CCC(=O)O)C(=O)N[C@@H](CCC(=O)O)C(=O)N[C@@H](CC(C)C)C(=O)N[C@@H](CCC(N)=O)C(=O)N[C@@H](CCCNC(=N)N)C(=O)N[C@@H](Cc1ccc(O)cc1)C(=O)N[C@@H](Cc1ccc(O)cc1)C(=O)N[C@H](C(=O)N[C@@H](C)C(=O)N[C@@H](CC(C)C)C(=O)N[C@@H](CCCNC(=N)N)C(=O)N[C@@H](Cc1c[nH]cn1)C(=O)N[C@@H](Cc1ccc(O)cc1)C(=O)N[C@@H](Cc1ccc(O)cc1)C(=O)N[C@@H](CC(N)=O)C(=O)N[C@@H](Cc1c[nH]c2ccccc12)C(=O)N[C@@H](CC(C)C)C(=O)N[C@H](C(=O)N[C@@H](CCCNC(=N)N)C(=O)N[C@@H](CCC(N)=O)C(=O)N[C@@H](CCCNC(=N)N)C(=O)N[C@@H](Cc1ccc(O)cc1)C(N)=O)[C@@H](C)O)C(C)C)[C@@H](C)O` [Compound 136, N{alpha-4}-(3-methylbutanoyl)-N{epsilon-7}-(6-[(4S)-4-carboxy-4-(17-carboxyheptadecanamido)butanamido]hexanoyl)-[4A,7K,9E,10A,13T,18Q,22V,23A,28Y,30W,31L]-hPYY(4-36)], the Ki in data set [1] (setting [5]) turned out to be 1.07 nM. Also, the EC50 in data set [2], in data set [3] and in data set [4] was over 5 µM in each case. For the same compound, in “Solubility determination”, the “Sol6” value amounted to 9.6 mg/mL. The “Sol7” value in “Solubility determination” is 10.0 mg/mL.

Consider `CC[C@H](C)[C@H](NC(=O)[C@H](CCC(=O)O)NC(=O)[C@H](CCC(=O)O)NC(=O)[C@@H]1CCCN1C(=O)[C@H](CCC(=O)O)NC(=O)[C@H](C)NC(=O)[C@H](CC(=O)O)NC(=O)[C@H](CCC(=O)O)NC(=O)[C@@H]1CCCN1C(=O)[C@@H]1CCCN1C(=O)[C@H](CCCCNC(=O)CCCCCNC(=O)CC[C@H](NC(=O)CCCCCCCCCCCCCCCCC(=O)O)C(=O)O)NC(=O)[C@H](CCC(=O)O)NC(=O)[C@@H]1CCCN1C(=O)[C@H](C)NC(=O)CC(C)C)C(=O)N[C@@H](CCC(N)=O)C(=O)N[C@@H](CCCNC(=N)N)C(=O)N[C@@H](Cc1ccc(O)cc1)C(=O)N[C@@H](Cc1ccc(O)cc1)C(=O)N[C@H](C(=O)N[C@@H](CO)C(=O)N[C@@H](CC(C)C)C(=O)N[C@@H](CCCNC(=N)N)C(=O)N[C@@H](Cc1c[nH]cn1)C(=O)N[C@@H](Cc1ccc(O)cc1)C(=O)N[C@@H](Cc1ccc(O)cc1)C(=O)N[C@@H](CC(N)=O)C(=O)N[C@@H](Cc1c[nH]c2ccccc12)C(=O)N[C@@H](CC(C)C)C(=O)N[C@H](C(=O)N[C@@H](CCCNC(=N)N)C(=O)N[C@@H](CCC(N)=O)C(=O)N[C@@H](CCCNC(=N)N)C(=O)N[C@@H](Cc1ccc(O)cc1)C(N)=O)[C@@H](C)O)C(C)C` [Compound 118, N{alpha-4}-(3-methylbutanoyl)-N{epsilon-7}-(6-[(4S)-4-carboxy-4-(17-carboxyheptadecanamido)butanamido]hexanoyl)-[4A,7K,9P,13E,17I,18Q,22V,28Y,30W,31L]-hPYY(4-36)], for which, in data set [1] (setting [5]), the Ki is 1 nM. For the same compound, the EC50 in data set [2], in data set [3] and in data set [4] was over 5 µM in each case. For the same compound, the “Sol6” value in “Solubility determination” is 10.0 mg/mL. In addition, the “Sol7” value in the data set “Solubility determination” worked out at 9.5 mg/mL.

On to `CC(C)CC(=O)N[C@@H](C)C(=O)N1CCC[C@H]1C(=O)N[C@@H](CCC(=O)O)C(=O)N[C@@H](CCCCNC(=O)CCCCCNC(=O)CC[C@H](NC(=O)CCCCCCCCCCCCCCCCC(=O)O)C(=O)O)C(=O)N1CCC[C@H]1C(=O)N[C@@H](CCC(=O)O)C(=O)N[C@@H](CCC(=O)O)C(=O)N[C@@H](C)C(=O)N[C@@H](C)C(=O)N[C@H](C(=O)N1CCC[C@H]1C(=O)N[C@@H](CCC(=O)O)C(=O)N[C@@H](CCC(=O)O)C(=O)N[C@@H](CC(C)C)C(=O)N[C@@H](CCC(N)=O)C(=O)N[C@@H](CCCNC(=N)N)C(=O)N[C@@H](Cc1ccc(O)cc1)C(=O)N[C@@H](Cc1ccc(O)cc1)C(=O)N[C@H](C(=O)N[C@@H](CO)C(=O)N[C@@H](CC(C)C)C(=O)N[C@@H](CCCNC(=N)N)C(=O)N[C@@H](Cc1c[nH]cn1)C(=O)N[C@@H](Cc1ccc(O)cc1)C(=O)N[C@@H](Cc1ccc(O)cc1)C(=O)N[C@@H](CC(N)=O)C(=O)N[C@@H](Cc1c[nH]c2ccccc12)C(=O)N[C@@H](CC(C)C)C(=O)N[C@H](C(=O)N[C@@H](CCCNC(=N)N)C(=O)N[C@@H](CCC(N)=O)C(=O)N[C@@H](CCCNC(=N)N)C(=O)N[C@@H](Cc1ccc(O)cc1)C(N)=O)[C@@H](C)O)C(C)C)[C@@H](C)O` [Compound 128, N{alpha-4}-(3-methylbutanoyl)-N{epsilon-7}-(6-[(4S)-4-carboxy-4-(17-carboxyheptadecanamido)butanamido]hexanoyl)-[4A,7K,9E,11A,13T,18Q,22V,28Y,30W,31L]-hPYY(4-36)], for which, in data set [1] (setting [5]), the inhibition constant Ki came out at 2.91 nM. In addition, the EC50 in data set [2], in data set [3] and in data set [4] was over 5 µM each time. In addition, the “Sol6” value in the data set “Solubility determination” was found to be 10.0 mg/mL. For the same compound, the “Sol7” value in the data set “Solubility determination” was over 10.0 mg/mL.

Turning to `CC[C@H](C)[C@H](NC(=O)[C@H](CCC(=O)O)NC(=O)[C@H](CCC(=O)O)NC(=O)[C@@H]1CCCN1C(=O)[C@H](CO)NC(=O)[C@H](C)NC(=O)[C@H](CC(=O)O)NC(=O)[C@H](CCC(=O)O)NC(=O)[C@H](CCC(=O)O)NC(=O)[C@@H]1CCCN1C(=O)[C@H](CCCCNC(=O)CCCCCNC(=O)CC[C@H](NC(=O)CCCCCCCCCCCCCCCCC(=O)O)C(=O)O)NC(=O)[C@H](C)NC(=O)[C@@H]1CCCN1C(=O)[C@H](C)NC(=O)CC(C)C)C(=O)N[C@@H](CCC(N)=O)C(=O)N[C@@H](CCCNC(=N)N)C(=O)N[C@@H](Cc1ccc(O)cc1)C(=O)N[C@@H](Cc1ccc(O)cc1)C(=O)N[C@H](C(=O)N[C@@H](CO)C(=O)N[C@@H](CC(C)C)C(=O)N[C@@H](CCCNC(=N)N)C(=O)N[C@@H](Cc1c[nH]cn1)C(=O)N[C@@H](Cc1ccc(O)cc1)C(=O)N[C@@H](Cc1ccc(O)cc1)C(=O)N[C@@H](CC(N)=O)C(=O)N[C@@H](Cc1c[nH]c2ccccc12)C(=O)N[C@@H](CC(C)C)C(=O)N[C@H](C(=O)N[C@@H](CCCNC(=N)N)C(=O)N[C@@H](CCC(N)=O)C(=O)N[C@@H](CCCNC(=N)N)C(=O)N[C@@H](Cc1ccc(O)cc1)C(N)=O)[C@@H](C)O)C(C)C` [Compound 63, N{alpha-4}-(3-methylbutanoyl)-N{epsilon-7}-(6-[(4S)-4-carboxy-4-(17-carboxyheptadecanamido)butanamido]hexanoyl)-[4A,6A,7K,9E,17I,18Q,22V,28Y,30W,31L]-hPYY(4-36)], the Ki was determined as 0.93 nM in data set [1] (setting [5]) and 6.6 nM in data set [1] (Table 8, DMSO stock, read-out: hY2R RLB Ki (nM) DMSO). Moreover, the EC50 in data set [2], in data set [3] and in data set [4] was over 5 µM each time. For the same compound, the “Sol6” value in the data set “Solubility determination” stood at 10.0 mg/mL. The “Sol7” value in “Solubility determination” was over 10.0 mg/mL.
